Measured values published in US8478375B2, “Sensor for detection of carbohydrate” (Medtronic Minimed, Inc., priority 2004, dated 2013).

Target: MBL (Homo sapiens, UniProt P11226)
Assay: Affinity of monomeric saccharides for MBL
Format: binding

MBL, sequence (P11226 21-248): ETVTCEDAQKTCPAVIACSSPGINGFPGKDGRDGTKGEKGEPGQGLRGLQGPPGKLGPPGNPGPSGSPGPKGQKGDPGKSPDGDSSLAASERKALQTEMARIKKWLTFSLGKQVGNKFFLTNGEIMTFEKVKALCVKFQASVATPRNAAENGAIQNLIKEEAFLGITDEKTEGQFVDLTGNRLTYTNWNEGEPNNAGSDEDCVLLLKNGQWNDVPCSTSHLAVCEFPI

Row | SMILES | affinity for MBL
1 | O=C[C@H](O)[C@@H](O)[C@@H](O)[C@H](O)CO [galactose] | very low affinity
2 | CC(=O)N[C@H]1C(O)O[C@H](CO)[C@@H](O)[C@@H]1O (some centres unmarked) [N-acetyl-glucosamine] | high affinity
